From ChEMBL document CHEMBL5625191, “A review of progress in o-aminobenzamide-based HDAC inhibitors with dual targeting capabilities for cancer therapy” (Eur J Med Chem, 2023)
Values belong to the compound of their own block, whether it stands above or below them.

How the values were obtained:
Histone deacetylase 1 [1] = target: T1, Histone deacetylase 1 (Homo sapiens, UniProt Q13547); assay: Inhibition of HDAC1 (unknown origin)
HCT-116 [2] = assay: Antiproliferative activity against human HCT-116 cells assessed as inhibition of cell growth; type: functional, cell-based
Histone deacetylase 2 [3] = target: T2, Histone deacetylase 2 (Homo sapiens, UniProt Q92769); assay: Inhibition of HDAC2 (unknown origin)
T2 sequence (Q92769 whole entry): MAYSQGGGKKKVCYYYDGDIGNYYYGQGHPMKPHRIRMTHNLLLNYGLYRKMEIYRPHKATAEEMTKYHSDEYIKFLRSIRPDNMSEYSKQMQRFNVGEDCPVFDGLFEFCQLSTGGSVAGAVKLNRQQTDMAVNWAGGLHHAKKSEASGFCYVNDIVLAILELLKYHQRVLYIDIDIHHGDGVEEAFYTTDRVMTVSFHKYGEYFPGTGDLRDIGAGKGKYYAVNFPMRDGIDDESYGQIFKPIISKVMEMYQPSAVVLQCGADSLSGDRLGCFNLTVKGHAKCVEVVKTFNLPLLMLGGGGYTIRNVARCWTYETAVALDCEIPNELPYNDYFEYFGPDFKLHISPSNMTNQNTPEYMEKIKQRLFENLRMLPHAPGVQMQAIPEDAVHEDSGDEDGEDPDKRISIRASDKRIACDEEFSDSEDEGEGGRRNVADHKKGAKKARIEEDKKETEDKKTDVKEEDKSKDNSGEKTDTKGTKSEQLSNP

Histone deacetylase [4] = assay: Inhibition of HDAC (unknown origin); type: protein assay, Homo sapiens
K562 [5] = assay: Antiproliferative activity against human K562 cells assessed as inhibition of cell growth by MTT assay; type: functional, cell-based
MGC-803 = assay: Cytotoxicity against human MGC-803 cells assessed as inhibition of cell growth; type: functional, cell-based
MCF7 [6] = assay: Cytotoxicity against human MCF7 cells assessed as inhibition of cell growth; type: functional, cell-based
HeLa [7] = assay: Cytotoxicity against human HeLa cells assessed as inhibition of cell growth; type: functional, cell-based
U-937 = assay: Cytotoxicity against human U-937 cells assessed as inhibition of cell growth; type: functional, cell-based
HepG2 = assay: Cytotoxicity against human HepG2 cells assessed as inhibition of cell growth; type: functional, cell-based
[8] = target: Protein deacetylase HDAC6 (Homo sapiens, UniProt Q9UBN7); assay: Inhibition of HDAC6 (unknown origin)
Protein deacetylase HDAC6, sequence (Q9UBN7 whole entry): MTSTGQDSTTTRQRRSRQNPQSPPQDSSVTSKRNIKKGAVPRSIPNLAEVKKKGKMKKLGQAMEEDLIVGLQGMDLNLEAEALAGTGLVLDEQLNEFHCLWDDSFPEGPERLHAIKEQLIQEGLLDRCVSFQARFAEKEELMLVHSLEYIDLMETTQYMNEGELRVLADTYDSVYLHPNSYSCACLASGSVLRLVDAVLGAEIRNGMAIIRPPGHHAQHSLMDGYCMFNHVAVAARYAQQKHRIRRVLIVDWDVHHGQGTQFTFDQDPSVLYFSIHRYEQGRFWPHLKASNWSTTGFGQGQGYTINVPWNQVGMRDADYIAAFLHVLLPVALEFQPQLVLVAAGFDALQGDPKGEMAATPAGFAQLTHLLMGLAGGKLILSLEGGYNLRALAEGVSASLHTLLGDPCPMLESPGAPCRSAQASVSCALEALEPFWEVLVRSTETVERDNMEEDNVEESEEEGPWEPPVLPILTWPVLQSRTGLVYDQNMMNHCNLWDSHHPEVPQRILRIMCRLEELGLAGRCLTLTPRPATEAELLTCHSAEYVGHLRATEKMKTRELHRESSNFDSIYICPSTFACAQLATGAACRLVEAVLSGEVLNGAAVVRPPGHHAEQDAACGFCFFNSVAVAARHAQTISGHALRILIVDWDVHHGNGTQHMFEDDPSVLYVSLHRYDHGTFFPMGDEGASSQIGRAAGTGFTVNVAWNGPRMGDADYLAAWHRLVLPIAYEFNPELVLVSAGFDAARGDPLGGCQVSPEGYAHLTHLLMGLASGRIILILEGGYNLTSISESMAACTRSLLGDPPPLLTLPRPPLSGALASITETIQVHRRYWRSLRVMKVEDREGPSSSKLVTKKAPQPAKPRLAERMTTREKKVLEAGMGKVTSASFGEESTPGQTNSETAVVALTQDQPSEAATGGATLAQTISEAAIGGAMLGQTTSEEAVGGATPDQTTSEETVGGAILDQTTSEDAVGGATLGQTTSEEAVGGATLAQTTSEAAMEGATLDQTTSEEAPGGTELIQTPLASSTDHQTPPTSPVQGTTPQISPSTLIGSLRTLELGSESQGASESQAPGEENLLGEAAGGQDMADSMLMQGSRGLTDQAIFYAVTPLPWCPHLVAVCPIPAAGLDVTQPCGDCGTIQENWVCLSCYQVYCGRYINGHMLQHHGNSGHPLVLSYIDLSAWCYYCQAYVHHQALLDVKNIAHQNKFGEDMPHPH

[9] = Antiproliferative activity against human SCCIC1 cells assessed as inhibition of cell growth; type: functional, cell-based
SK-MEL-1 = assay: Antitumor activity against human SK-MEL-1 cells assessed as tumor growth inhibition at 30 mg/kg, ip administered for 28 days; type: functional; conditions: SK-MEL-1, 672 h, time 28 day, read-out: TGI
[10] = Antiproliferative activity against human MET-1 cells assessed as inhibition of cell growth; type: functional, cell-based
MCF7 [11] = assay: Antiproliferative activity against human MCF7 cells assessed as inhibition of cell growth incubated for 48 hrs by CCK-8 assay; type: functional, cell-based; conditions: MCF7, 48 h
HCT-116 [12] = assay: Antitumor activity against human HCT-116 cells xenografted in BALB/c mouse assessed tumor growth inhibition at 150 mg/kg, po bid measured for every 3 days; type: functional; conditions: HCT-116, 72 h, time 3 day, read-out: TGI
Histone deacetylase 1 [13] = target: T1, Histone deacetylase 1; assay: Inhibition of HDAC1 in human HeLa nuclear extract using Boc-Lys(Ac)-AMC or Boc-Lys(Tfa)-AMC as substrate preincubated for 5 mins followed by substrate addition and measured after 30 mins by fluorescence assay; type: cell-free
HEL = assay: Antiproliferative activity against human HEL cells assessed as inhibition of cell growth incubated for 48 hrs by MTT assay; type: functional, cell-based
MOLT-4 = assay: Antiproliferative activity against human MOLT-4 cells assessed as inhibition of cell growth incubated for 48 hrs by MTT assay; type: functional, cell-based; conditions: MOLT-4, 48 h
HCT-116 [14] = assay: Antiproliferative activity against human HCT-116 cells assessed as inhibition of cell growth incubated for 48 hrs by MTT assay; type: functional, cell-based; conditions: HCT-116, 48 h
HeLa [15] = assay: Antiproliferative activity against human HeLa cells assessed as inhibition of cell growth incubated for 48 hrs by MTT assay; type: functional, cell-based
Histone deacetylase 3 = Histone deacetylase 3 (Homo sapiens, UniProt O15379); assay: Inhibition of HDAC3 in human HeLa nuclear extract using Boc-Lys(Ac)-AMC or Boc-Lys(Tfa)-AMC as substrate preincubated for 5 mins followed by substrate addition and measured after 30 mins by fluorescence assay; type: cell-free
Histone deacetylase 3, sequence (O15379 whole entry): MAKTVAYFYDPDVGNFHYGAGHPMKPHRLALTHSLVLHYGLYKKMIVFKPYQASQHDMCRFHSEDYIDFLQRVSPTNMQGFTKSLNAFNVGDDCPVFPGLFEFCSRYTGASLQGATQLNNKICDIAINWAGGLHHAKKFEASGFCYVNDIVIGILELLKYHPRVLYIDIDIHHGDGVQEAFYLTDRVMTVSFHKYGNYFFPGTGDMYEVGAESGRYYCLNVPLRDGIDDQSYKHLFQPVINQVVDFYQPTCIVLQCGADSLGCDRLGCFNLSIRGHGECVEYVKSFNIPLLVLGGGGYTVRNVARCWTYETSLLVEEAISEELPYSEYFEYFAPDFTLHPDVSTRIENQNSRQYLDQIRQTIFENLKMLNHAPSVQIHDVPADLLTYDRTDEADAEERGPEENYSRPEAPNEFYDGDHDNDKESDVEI

Histone deacetylase 2 [16] = target: T2, Histone deacetylase 2; assay: Inhibition of HDAC2 in human HeLa nuclear extract using Boc-Lys(Ac)-AMC or Boc-Lys(Tfa)-AMC as substrate preincubated for 5 mins followed by substrate addition and measured after 30 mins by fluorescence assay; type: cell-free
Jurkat = assay: Antiproliferative activity against human Jurkat cells assessed as inhibition of cell growth incubated for 48 hrs by MTT assay; type: functional, cell-based
PC-3 = assay: Antiproliferative activity against human PC-3 cells assessed as inhibition of cell growth incubated for 48 hrs by MTT assay; type: functional, cell-based; conditions: PC-3, 48 h
A549 [17] = assay: Antiproliferative activity against human A549 cells assessed as inhibition of cell growth incubated for 48 hrs by MTT assay; type: functional, cell-based; conditions: A549, 48 h
MCF7 [18] = assay: Antiproliferative activity against human MCF7 cells assessed as inhibition of cell growth incubated for 48 hrs by MTT assay; type: functional, cell-based; conditions: MCF7, 48 h
Histone deacetylase [19] = assay: Inhibition of HDAC in human HeLa nuclear extract using Boc-Lys(Ac)-AMC or Boc-Lys(Tfa)-AMC as substrate preincubated for 5 mins followed by substrate addition and measured after 30 mins by fluorescence assay; type: cell-free
Ephrin type-A receptor 2 = Ephrin type-A receptor 2 (Homo sapiens, UniProt P29317); assay: Inhibition of EphA2 (unknown origin) incubated for 30 mins by TR-FRET assay
Ephrin type-A receptor 2, sequence (P29317 whole entry): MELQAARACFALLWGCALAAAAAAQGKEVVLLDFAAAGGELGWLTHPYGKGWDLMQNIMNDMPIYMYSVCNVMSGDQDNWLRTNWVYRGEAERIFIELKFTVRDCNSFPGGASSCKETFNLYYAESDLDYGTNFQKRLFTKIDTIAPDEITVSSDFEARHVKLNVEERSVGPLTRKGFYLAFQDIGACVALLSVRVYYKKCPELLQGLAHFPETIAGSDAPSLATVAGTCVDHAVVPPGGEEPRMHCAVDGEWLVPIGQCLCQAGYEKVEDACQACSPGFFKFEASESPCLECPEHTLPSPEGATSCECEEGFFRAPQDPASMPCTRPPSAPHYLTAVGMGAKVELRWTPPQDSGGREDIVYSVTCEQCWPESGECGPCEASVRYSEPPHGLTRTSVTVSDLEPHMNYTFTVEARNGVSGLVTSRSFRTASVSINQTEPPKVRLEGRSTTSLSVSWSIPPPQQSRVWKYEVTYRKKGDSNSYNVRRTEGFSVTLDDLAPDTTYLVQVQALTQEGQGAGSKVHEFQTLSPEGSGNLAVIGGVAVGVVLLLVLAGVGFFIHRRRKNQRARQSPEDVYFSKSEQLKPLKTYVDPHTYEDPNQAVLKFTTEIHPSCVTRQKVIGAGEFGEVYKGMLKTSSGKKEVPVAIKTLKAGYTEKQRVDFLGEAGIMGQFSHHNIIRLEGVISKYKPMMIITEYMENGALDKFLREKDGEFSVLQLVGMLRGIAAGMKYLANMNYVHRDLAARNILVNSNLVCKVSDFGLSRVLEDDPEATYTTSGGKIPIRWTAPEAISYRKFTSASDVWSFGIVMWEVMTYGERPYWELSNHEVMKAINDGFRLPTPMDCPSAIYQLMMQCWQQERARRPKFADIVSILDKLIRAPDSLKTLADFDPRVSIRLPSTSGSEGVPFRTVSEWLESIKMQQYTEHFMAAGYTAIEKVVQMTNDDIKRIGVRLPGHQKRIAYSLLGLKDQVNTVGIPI

[20] = target: Bromodomain-containing protein 4 (Homo sapiens, UniProt O60885); assay: Inhibition of BRD4 BD1 (unknown origin)
K562 [21] = assay: Antiproliferative activity against human K562 cells assessed as inhibition of cell growth incubated for 48 hrs by MTT assay; type: functional, cell-based; conditions: K562, 48 h
A549 [22] = assay: Antiproliferative activity against human A549 cells assessed as inhibition of cell growth incubated for 48 hrs by CCK-8 assay; type: functional, cell-based; conditions: A549, 48 h
CT26 = assay: Antitumor activity against mouse CT26 cells xenografted in mouse assessed as reduction in tumor volume; type: functional; parameters: scale not given: the % may be the effect or the level left

T1 sequence (Q13547 whole entry): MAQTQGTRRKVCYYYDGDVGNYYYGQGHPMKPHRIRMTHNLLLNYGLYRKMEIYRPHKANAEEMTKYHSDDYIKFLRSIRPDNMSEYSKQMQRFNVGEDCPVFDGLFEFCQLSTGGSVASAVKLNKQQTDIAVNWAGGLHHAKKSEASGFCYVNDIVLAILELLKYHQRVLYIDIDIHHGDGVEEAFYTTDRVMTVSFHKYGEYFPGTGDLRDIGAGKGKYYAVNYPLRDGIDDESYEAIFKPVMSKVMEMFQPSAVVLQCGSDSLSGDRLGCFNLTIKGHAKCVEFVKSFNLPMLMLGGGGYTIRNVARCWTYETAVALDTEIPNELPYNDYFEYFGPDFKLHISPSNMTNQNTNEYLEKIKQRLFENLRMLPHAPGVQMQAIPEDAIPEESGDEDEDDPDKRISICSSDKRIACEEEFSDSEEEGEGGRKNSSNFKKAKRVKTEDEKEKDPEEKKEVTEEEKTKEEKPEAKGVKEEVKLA

IC50 (Histone deacetylase 1 [1]): 400 nM
IC50 (HCT-116 [2]): 2150 nM
IC50 (Histone deacetylase 2 [3]): 2140 nM
Structure (SMILES): CN1c2ccc(NCc3ccc(C(=O)Nc4ccccc4N)cc3)cc2C(=O)N2CCc3c([nH]c4ccc(O)cc34)[C@H]21

IC50 (Histone deacetylase [4]): 810 nM
IC50 (K562 [5]): 2620 nM
Structure (SMILES): CCN1CCN(c2cc(Nc3ncc(C(=O)Nc4ccc(F)cc4N)s3)ncn2)CC1

IC50 (Histone deacetylase 2 [3]): 60 nM
IC50 [8]: 120 nM
Structure (SMILES): COc1cc2c(cc1OCc1ccc(C(=O)Nc3ccccc3N)cc1)CC[C@@H]1[C@H]3CC[C@@H](O)[C@]3(C)CC[C@@H]21
IC50 (MGC-803): 370 nM
IC50 (MCF7 [6]): 370 nM
IC50 (HeLa [7]): 370 nM
IC50 (U-937): 371 nM
IC50 (HepG2): 370 nM

Structure (SMILES): Nc1ccccc1NC(=O)c1ccc(CCCC(=O)Nc2ccc([C@@H]3C[C@H]3N)cc2)cc1
IC50 [9]: 41 nM
inhibition in vivo at 30 mg/kg (SK-MEL-1): 61%
IC50 [10]: 6 nM

IC50 (MCF7 [11]): 18 nM
Structure (SMILES): CN1c2ccccc2C(=O)N2[C@H](C(=O)Nc3ccc(C(=O)Nc4ccccc4N)cc3)Cc3c([nH]c4ccccc34)[C@@H]12
inhibition in vivo at 150 mg/kg (HCT-116 [12]): 75.2%

IC50 (Histone deacetylase 1 [13]): 660 nM
IC50 (MOLT-4): 720 nM
IC50 (HCT-116 [14]): 790 nM
IC50 (HeLa [15]): 1560 nM
IC50 (Histone deacetylase 3): 500 nM
IC50 (Histone deacetylase 2 [16]): 1200 nM
IC50 (Jurkat): 470 nM
IC50 (PC-3): 1920 nM
IC50 (A549 [17]): 1550 nM
Structure (SMILES): Nc1ccccc1NC(=O)CCCCCCCOc1no[n+]([O-])c1S(=O)(=O)c1ccccc1
IC50 (HEL): 420 nM

IC50 (MCF7 [18]): 7420 nM
IC50 (HCT-116 [14]): 5290 nM
IC50 (Histone deacetylase [19]): 1520 nM
IC50 (Ephrin type-A receptor 2): 570 nM
Structure (SMILES): COc1ccc(C(=O)Nc2ccc(NC(=O)Nc3ccccc3N)cc2)cc1

Structure (SMILES): Cc1sc2c(c1C)C(c1ccc(Cl)cc1)=N[C@@H](CC(=O)Nc1ccc(C(=O)Nc3ccccc3N)cc1)c1nnc(C)n1-2
IC50 [20]: 729 nM

IC50 (K562 [21]): 8360 nM
IC50 (Histone deacetylase [19]): 940 nM
IC50 (Ephrin type-A receptor 2): 680 nM
Structure (SMILES): Nc1ccccc1NC(=O)Nc1ccc(NC(=O)c2cccnc2)cc1

IC50 (A549 [22]): 7.8 nM
Structure (SMILES): Cn1cc(-c2ccc(S(=O)(=O)n3ccc(/C=C/C(=O)Nc4ccccc4N)c3)cc2)cn1 [DOMATINOSTAT]
Activity (CT26): 53%
